Patent US10016440B2, “Methods of enhancing antibody-dependent cellular cytotoxicity” (VentiRx Pharmaceuticals, Inc., priority 2010, dated 2018)

How the values were obtained:
Assay type in all cases: cell-based, human
[1] = tested on: rituximab-coated HS-Sultan cells; test: Rituximab-mediated ADCC of HS-Sultan cells with PBMC from donors genotyped for FcgR polymorphisms; details: for baseline ADCC (percent specific lysis): buffer control, E:T 50:1 (FIG. 4); for rituximab-mediated ADCC activity: unstimulated PBMC
Protocol: Percent specific lysis is shown for Rituxan-coated HS-Sultan cells incubated with PBMC effector cells at an E:T ratio of 50:1. PBMCs from a patient with the high affinity genotype FcgR2a131 H/H and FcgR3a V/V (solid rectangles) or a patient with the lower affinity genotype FcgR2a131 […] and FcgR3a V/F (open rectangles) were evaluated for ADCC after stimulation with buffer control (baseline) or stimulation with 500 nM ADCC enhancer.
ADCC is mediated through immune effector cells included NK cells that engage the Fc portion of the monoclonal antibody through specific receptors. Patients with single nucleotide polymorphisms in these receptors such as FcRgamma3a position 158 and FcRgamma2a position 131 have a poorer clinical prognosis presumably from poor ADCC due to a lower affinity of the receptor for the monoclonal antibody. […] To determine if this common polymorphism affects the baseline antibody-dependent cellular cytoxicity (ADCC) response and/or response to the ADCC enhancer molecule of the present invention (Compound VTX-2337), PBMCs from donors were genotyped for the two alleles encoding the F and V isoforms, respectively, and tested in vitro. We analyzed rituximab-mediated ADCC using unstimulated PBMC or VTX-2337-stimulated PBMC from 15 donors, including 10 donors with FF or FV phenotype and 5 donors with VV phenotype.
Blood was collected from healthy donors and PBMCs were isolated using a Ficoll gradient. PBMCs were activated by culturing them in the presence of 500 nM VTX-2337 at 37° C. in a humidified 5% CO2 incubator for 48 hours. Activated PBMCs were then incubated with rituximab-coated HS-Sultan cells loaded at a ratio of 100:1 for 4 hours. Lysis was determined by measuring release of the fluorescent dye Calcein AM from the HS-Sultan cells.

[2] = tested on: breast cancer cell line MDA-MB-231; test: Herceptin-mediated ADCC of MDA-MB-231 cells by PBMC effector cells (Calcein AM release); details: PBMCs activated with the ADCC enhancer (FIG. 3)
Protocol: (§1) Human Peripheral blood mononuclear cells (PBMCs) were isolated by Ficoll™ density gradient centrifugation and resuspended in RPMI containing 2% heat-inactivated FBS. PBMCs at a concentration of 1 to 3 million cells per mL were incubated with 10-500 nM ADCC enhancer in a humidified CO2 incubator for 18-72 hrs. Activated PBMCs were then used as effector cells in NK and ADCC assays. PBMCs activated with the ADCC enhancer were tested for the ability to enhance killing of the NK sensitive target cell line K562 or various tumor cells coated with monoclonal antibodies. Target cells were labeled with the fluorescent dye Calcein AM for 1 hour at 37° C. in a dark humidified CO2 incubator. […] Activated effector cells and labeled target cells were incubated in 96-well tissue culture plates at for 4 hours at 37° C. in a dark humidified CO2 incubator in an assay buffer containing HBSS+Ca/Mg+5% FBS. […] Fluorecence was quantified with a fluorescent microtiter plate reader. The % specific lysis was calculated as (Sample fluorescence-spontaneous fluorescence)*100/(100% fluorescence-spontaneous). 100% fluorescence was determined from wells that contained labeled target cells and detergent such at 0.1% Tween-20 or Triton X-100. Spontaneous fluorescence was determined from wells that contained assay buffer and target cells but not effector cells.

[3] = tested on: breast cancer cell line SKBR3; test: Herceptin-mediated ADCC of SKBR3 cells by PBMC effector cells (Calcein AM release); details: PBMCs activated with the ADCC enhancer (FIG. 3)
Protocol: as §1

Molecule | baseline ADCC (percent specific lysis) ([1]; patient with high affinity genotype FcgR2a131 H/H and FcgR3a V/V) | baseline ADCC (percent specific lysis) ([1]; patient with lower affinity genotype FcgR2a131 A/A and FcgR3a V/F) [%] | rituximab-mediated ADCC activity ([1]; FF/FV donors, E:T 100:1 (FIG. 5)) [% specific lysis] | rituximab-mediated ADCC activity ([1]; VV donors, E:T 100:1 (FIG. 5)) [% specific lysis] | killing of Herceptin coated MDA-MB-231 targets [2] | rituximab-mediated ADCC ([1]; PBMC stimulated with 500 nM VTX-2337 for 48 hours, low affinity FF/FV group, E:T 100:1 (FIG. 5)) [%] | killing of Herceptin coated SKBR3 targets [3] [%]
Rituxan: anti-CD20 monoclonal antibody rituximab (Rituxan) | approximately 30% | 10 | 20.5±2.5 | 31.7±2.9 | – | – | –
CCCN(CCC)C(=O)C1=Cc2ccc(-c3ccc(C(=O)N4CCCC4)cc3)cc2N=C(N)C1 [ADCC enhancer, {2-amino-8-[4-(pyrrolidinylcarbonyl)phenyl]-(3H-benzo[f]azepin-4-yl)}-N,N-dipropylcarboxamide] | – | – | – | – | 40-60% | 40.0±4.1 | > 80
